Test results published in patent publication US10633407B2, “14-membered ketolides and methods of their preparation and use” (President and Fellows of Harvard College, priority 2014, dated 2020).
≈ marks a conversion by molar mass, not a printed value.

Tests used:
Test in all cases: CLSI broth dilution MIC determination
Assay type in all cases: cell-based
E. coli ATCC 25922 = tested on: E. coli ATCC 25922
Description: (§1) MIC data was collected for the novel macrolides that this platform has produced against over 21 unique strains of B. subtilis, E. coli, S. aureus, S. pneumoniae, and H. influenzae, including several multidrug-resistant strains, with a special focus on macrolide resistant mechanisms (vide supra). Azithromycin (Azithro) and Solithromycin (Solithro) were included as a control macrolides in many cases. CLSI standard procedures for broth dilution MIC determination were used. […] These genotypes can be constitutive or inducible.

E. coli CTX-M-14 = settings: Gram-negative
Description: as §1

E. coli NDM-1 = settings: Gram-negative
Description: as §1

E. coli TEM-1 = settings: E. coli TEM-1; Gram-negative
Description: as §1

H. influenzae ATCC49247 = settings: Gram-negative
Description: as §1

K. pneumoniae TEM-10 = settings: Gram-negative
Description: as §1

S. aureus ATCC 29213 = tested on: S. aureus ATCC 29213
Description: as §1

S. aureus MRSA: USA100 = settings: S. aureus MRSA: USA100; Gram-positive
Description: as §1

S. aureus MRSA: USA300 = tested on: S. aureus MRSA: USA300
Description: as §1

S. aureus USA600, GISA = settings: S. aureus USA600, GISA; Gram-positive
Description: as §1

S. aureus erm A genotype = settings: S. aureus erm A genotype; Gram-positive
Description: as §1

S. pneumoniae ATCC 49619 = settings: S. pneumoniae ATCC 49619; Gram-positive
Description: as §1

[1] = tested on: S. pneumoniae mef A genotype (second strain so labelled); settings: Gram-positive
Description: as §1

S. pyogenes ATCC 19615 = settings: S. pyogenes ATCC 19615; Gram-positive
[2] = tested on: S. pyogenes Macrolide-resistant; settings: S. pyogenes Macrolide-resistant; Gram-positive
E. faecalis ATCC 29212 = settings: E. faecalis ATCC 29212; Gram-positive
[3] = tested on: E. faecalis Vancomycin-resistant; settings: E. faecalis Vancomycin-resistant; Gram-positive
A. baumannii ATCC 19606 = tested on: A. baumannii ATCC 19606
[4] = tested on: A. baumannii imipenem-resistant; settings: Gram-negative
[5] = tested on: A. baumannii chromosomal class C; settings: Gram-negative
A. baumannii IMP-4 = settings: Gram-negative
K. pneumoniae ATCC 10031 = tested on: K. pneumoniae ATCC 10031
K. pneumoniae KPC-2 = settings: Gram-negative
K. pneumoniae SHV-12 = settings: Gram-negative
P. aeruginosa ATCC 27853 = tested on: P. aeruginosa ATCC 27853
[6] = tested on: P. aeruginosa HPA101-1477; settings: Gram-negative
[7] = tested on: H. influenzae Erythro >4, Azithro 1; settings: H. influenzae Erythro >4, Azithro 1; Gram-negative
Description: as §1, with “Azithromycin (Azithro) and Solithromycin (Solithro) were included as a control macrolides in many cases.” left out

[8] = tested on: E. coli MP-532 clinical-cErmB; settings: E. coli MP-532, clinical-cErmB
Description: as §1

E. coli MP-541 clinical = tested on: E. coli MP-541 clinical
Description: as §1

[9] = tested on: E. coli MP-9 ATCC25922:tolC; settings: E. coli MP-9, ATCC25922:tolC
Description: as §1

[10] = tested on: S. aureus (MRSA) MP-513 ST-228 cErm (Clinical-cErm)
Description: as §1

[11] = tested on: S. aureus MP-17 ATCCBAA-977 (BAA 977 iErm); settings: S. aureus MP-17, ATCCBAA-977, iErm
Description: as §1

P. aeruginosa MP-7 PAO1 = tested on: P. aeruginosa MP-7 PAO1
[12] = tested on: P. aeruginosa MP-8 PAO1:mex (mex-oprM-deletion); settings: P. aeruginosa MP-8, PAO1:mex, mex-oprM-deletion
[13] = tested on: K. pneumoniae MP-548 clinical
[14] = tested on: K. pneumoniae MP-546 Clinical-MDR
[15] = tested on: A. baumannii MP-577 Clinical-AZT low
[16] = tested on: A. baumannii MP-576 Clinical-MDR
[17] = S. aureus MRSA: USA300 (MP-549, msr(a))
[18] = A. baumannii ATCC 19606 (MP-15)
[19] = K. pneumoniae ATCC 10031 (MP-14)
[20] = P. aeruginosa ATCC 27853 (MP-3)

SMILES: CC[C@H]1OC(=O)[C@@](C)(F)C(=O)[C@H](C)[C@@H](O[C@@H]2OC(C)CC(N(C)C)C2O)[C@](C)(OC)C[C@@H](C)C(=O)[C@H](C)[C@H]2N(C/C=C/Cn3cc(-c4cccc(N)c4)nn3)C(=O)O[C@]12C (stereo partly shown) [FSM-11563]
- MIC (E. coli ATCC 25922; E. coli ATCC 25922, Gram-negative): 16 µg/mL (≈ 19 µM)
- MIC (E. coli CTX-M-14): > 32 µg/mL
- MIC (E. coli NDM-1): > 32 µg/mL
- MIC (E. coli TEM-1): 16 µg/mL (≈ 19 µM)
- MIC (H. influenzae ATCC49247): 2 µg/mL (≈ 2.37 µM)
- MIC (K. pneumoniae TEM-10): 32 µg/mL (≈ 38 µM)
- MIC (S. aureus ATCC 29213; S. aureus ATCC 29213, Gram-positive): 0.0625 µg/mL (≈ 0.0741 µM)
- MIC (S. aureus MRSA: USA100): > 32 µg/mL
- MIC (S. aureus MRSA: USA300; S. aureus MRSA: USA300, Gram-positive): 0.125 µg/mL (≈ 0.148 µM)
- MIC (S. aureus USA600, GISA): > 32 µg/mL
- MIC (S. aureus erm A genotype): > 32 µg/mL
- MIC (S. pneumoniae ATCC 49619): ≤ 0.0312 µg/mL
- MIC [1]: ≤ 0.0312 µg/mL
- MIC (S. pyogenes ATCC 19615): ≤ 0.0312 µg/mL
- MIC [2]: ≤ 0.0312 µg/mL
- MIC (E. faecalis ATCC 29212): ≤ 0.0312 µg/mL
- MIC [3]: 4 µg/mL (≈ 4.74 µM)
- MIC (A. baumannii ATCC 19606; A. baumannii ATCC 19606, Gram-negative): 4 µg/mL (≈ 4.74 µM)
- MIC [4]: 4 µg/mL (≈ 4.74 µM)
- MIC [5]: 2 µg/mL (≈ 2.37 µM)
- MIC (A. baumannii IMP-4): > 32 µg/mL
- MIC (K. pneumoniae ATCC 10031; K. pneumoniae ATCC 10031, Gram-negative): 4 µg/mL (≈ 4.74 µM)
- MIC (K. pneumoniae KPC-2): > 32 µg/mL
- MIC (K. pneumoniae SHV-12): > 32 µg/mL
- MIC (P. aeruginosa ATCC 27853; P. aeruginosa ATCC 27853, Gram-negative): 32 µg/mL (≈ 38 µM)
- MIC [6]: > 32 µg/mL
- MIC [7]: 4 µg/mL (≈ 4.74 µM)

SMILES: CCC1OC(=O)C(C)(F)C(=O)C(C)C(OC2OC(C)CC(N(C)C)C2O)C(C)(OC)CC(C)C(=O)C(C)C2N(CC=C=Cn3cc(-c4ccnc(N)n4)nn3)C(=O)OC12C (stereo not shown) [FSM-22737]
- MIC (E. coli ATCC 25922; E. coli ATCC 25922 (MP-4)): 16 µg/mL (≈ 19 µM)
- MIC [8]: >64 µg/mL
- MIC (E. coli MP-541 clinical): 16 µg/mL (≈ 19 µM)
- MIC [9]: 2 µg/mL (≈ 2.37 µM)
- MIC [10]: >64 µg/mL
- MIC (S. aureus ATCC 29213; S. aureus ATCC 29213 (MP-12)): 0.25 µg/mL (≈ 0.297 µM)
- MIC [11]: 0.25 µg/mL (≈ 0.297 µM)
- MIC (S. aureus MRSA: USA300; [17]): 0.25 µg/mL (≈ 0.297 µM)
- MIC (A. baumannii ATCC 19606; [18]): 16 µg/mL (≈ 19 µM)
- MIC (K. pneumoniae ATCC 10031; [19]): 8 µg/mL (≈ 9.49 µM)
- MIC (P. aeruginosa ATCC 27853; [20]): >64 µg/mL
- MIC (P. aeruginosa MP-7 PAO1): >64 µg/mL
- MIC [12]: 16 µg/mL (≈ 19 µM)
- MIC [13]: 64 µg/mL (≈ 75.9 µM)
- MIC [14]: >64 µg/mL
- MIC [15]: 32 µg/mL (≈ 38 µM)
- MIC [16]: >64 µg/mL

SMILES: CCC1OC(=O)C(C)(F)C(=O)C(C)C(OC2OC(C)CC(N(C)C)C2O)C(C)(OC)CC(C)C(=O)C(C)C2N(CC=C=Cn3cc(-c4nccc(N)n4)nn3)C(=O)OC12C (stereo not shown) [FSM-22738]
- MIC (E. coli ATCC 25922; E. coli ATCC 25922 (MP-4)): 8 µg/mL (≈ 9.49 µM)
- MIC [8]: >64 µg/mL
- MIC (E. coli MP-541 clinical): 16 µg/mL (≈ 19 µM)
- MIC [9]: 1 µg/mL (≈ 1.19 µM)
- MIC [10]: 32 µg/mL (≈ 38 µM)
- MIC (S. aureus ATCC 29213; S. aureus ATCC 29213 (MP-12)): 0.25 µg/mL (≈ 0.297 µM)
- MIC [11]: 0.25 µg/mL (≈ 0.297 µM)
- MIC (S. aureus MRSA: USA300; [17]): 0.25 µg/mL (≈ 0.297 µM)
- MIC (A. baumannii ATCC 19606; [18]): 8 µg/mL (≈ 9.49 µM)
- MIC (K. pneumoniae ATCC 10031; [19]): 4 µg/mL (≈ 4.75 µM)
- MIC (P. aeruginosa ATCC 27853; [20]): 64 µg/mL (≈ 75.9 µM)
- MIC (P. aeruginosa MP-7 PAO1): 64 µg/mL (≈ 75.9 µM)
- MIC [12]: 8 µg/mL (≈ 9.49 µM)
- MIC [13]: 64 µg/mL (≈ 75.9 µM)
- MIC [14]: >64 µg/mL
- MIC [15]: 32 µg/mL (≈ 38 µM)
- MIC [16]: >64 µg/mL
